How the values were obtained:
ABL T315I BAF3 cells = biological target: T1, ABL T315I BAF3 cells (Homo sapiens, UniProt P00519, T315I, cells depend on it); experiment: 96-well XTT cell survival assay, BaF3 ABL T315I; assay type: cell-based; conditions: 72 hours, read-out: CELL BIO ABL T315I BAF3 XTT (IC50)
T1 construct: ABL T315I BAF3; fused on or other part: P11274 (Breakpoint cluster region protein)
Procedure: (§1) MV4-11 and THP cells were maintained in Iscove's Modified Dulbecco's Medium supplemented with 10% fetal bovine serum (FBS) and penicillin/streptomycin, Ba/F3 cells were maintained in RPMI 1640 supplemented with 10% FBS, penicillin/streptomycin and 5 ng/ml recombinant mouse IL-3.
(§2) Compounds were tested in the following assays in duplicate.
(§3) 96-well XTT assay: Cells (e.g. BaF3 315I, M3511, or E255K cells) were grown in growth media containing various concentrations of compounds (duplicates) on a 96-well plate for 72 hours at 37° C. The starting cell number was 5000-8000 cells per well and volume was 120 μl. At the end of the 72-hour incubation, 40 μl of XTT labeling mixture (50:1 solution of sodium 3′-[1-(phenylamino-carbonyl)-3,4-tetrazolium]-bis(4-methoxy-6-nitro) benzene sulfonic acid hydrate and Electron-coupling reagent: PMS (N-methyl dibenzopyrazine methyl sulfate) were added to each well of the plate. After an additional 2-6 hours of incubation at 37° C., the absorbance reading at 405 nm with background correction at 650 nm was measured with a spectrophotometer.

[1] = biological target: T2, purified and unphosphorylated T315I Abl kinase domain (ABL_T315I_0P) (Mus musculus, UniProt P00520, T315I); experiment: c-Abl T315I (unphosphorylated kinase domain) pyruvate kinase/lactate dehydrogenase coupled enzyme assay; assay type: biochemical; conditions: 10 μM ATP
T2 construct: The c-Abl T3151 KD (kinase domain) was purified as follows; Met-Ser-Leu (vector-derived residues) (N); made in house; host or cells: E. coli BL21(DE3) strains (Codon+RIL, or pSA0145 for the lambda phosphatase co-expression plasmid)
T2 sequence (P00520 242-493 T315I limits assumed): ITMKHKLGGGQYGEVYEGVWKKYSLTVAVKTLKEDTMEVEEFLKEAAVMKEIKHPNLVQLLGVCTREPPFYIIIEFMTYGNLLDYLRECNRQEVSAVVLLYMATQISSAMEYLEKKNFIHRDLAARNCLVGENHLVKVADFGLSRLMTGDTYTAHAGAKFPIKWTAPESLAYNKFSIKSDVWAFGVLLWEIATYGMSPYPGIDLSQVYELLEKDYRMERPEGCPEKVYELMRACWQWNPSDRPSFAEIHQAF
Source text: Although the first of these examples uses the kinase domain of a mutant form of Abl T315I (“Abl T315I KD”), the kinase assays may use various forms of mutant and wild type enzymes, including, for example, the entire protein, the kinase domain, or a portion thereof (e.g. Abl Y393F). The kinases used in the assays may also be of varying phosphorylation states. In the c-Abl example, a mutant kinase at a zero phosphorylation state was used.
c-Abl Pyruvate Kinase/Lactate Dehydrogenase Coupled Enzyme Assay
In the c-Abl Pyruvate Kinase (PK)/Lactate Dehydrogenase (LDH) Coupled Assay the protein kinase dependant phosphorylation of a substrate peptide was coupled to the oxidation of NADH. The oxidation of NADH to NAD+ was detected by monitoring a decrease in absorbance at 340 nm.
Materials: Abl substrate peptide=EAIYAAPFAKKK-OH (SEQ ID NO: 1) (Biopeptide, San Diego, Calif.); […]NADH (Sigma Cat#N-8129, FW=709.4); 2M MgCl2; 1M HEPES buffer, pH 7.5; Phosphoenolpyruvate (PEP) (Sigma Cat#P-7002, FW=234); Lactate dehydrogenase (LDH) (Worthington Biochemical Cat#2756); Pyruvate Kinase (PK) (Sigma Cat#P-9136); ATP (Sigma Cat#A-3377, FW=551); Greiner 384-well UV star plate; and purified and unphosphorylated T3151 Abl kinase domain.
Stock Solutions: 10 mM NADH (7.09 mg/ml in miliQH2O) made fresh daily; 10 mM Abl substrate peptide (13.4 mg/ml in miliQH2O) stored at −20° C.; 100 mM HEPES buffer, pH 7.5 (5 ml 1M stock+45 ml miliQH2O); 100mM MgCl2 (5 ml 2M MgCl2+95 ml dH2O); 100 mM PEP (23.4 mg/ml in dH2O) stored at −20° C.; 10mM ATP (5.51 mg/ml in dH2O) stored at −20° C. (diluted 50 μl into total of 10 ml miliQH2O daily=50 μM ATP working stock); 1000 U/ml PK (U/mg varies with lot) flash-frozen under liquid N2 and stored at −80° C.; and 1000 U/ml LDH (U/mg varies with lot) flash-frozen under liquid N2 and stored at −80° C.
Standard Assay Setup for 384-well format (50 μl reaction): 300 μM NADH; 10 mM MgCl2; 2 mM PEP; 45 U/ml PK; 60 U/ml LDH; 200 μM Abl substrate peptide; 2.5 μl test compound (in DMSO); 2 μg/ml Abl kinase domain; 10 μM ATP; 100 mM HEPES buffer. Positive controls contained DMSO with no test compound. Negative controls contained 5 μl of 0.5M EDTA (50 mM in the assay). The dephosphorylated form of the c-Abl T315I mutant was used in the biochemical screening assays. The kinase reaction was initiated at time t=0 by the addition of ATP.
Activity was measured by following the time-dependent loss of NADH by absorbance spectroscopy at 340 nm. The linear portion of the resulting progress curve was then analyzed by linear regression to get the activity in absorbance units/time, reported as the slope of that best fit line (moles/unit time can be calculated from using molar extinction coefficient for NADH at 340 nm, 6250M^−1 cm^−1).
Screening data was evaluated using the equation: Z′=1-[3*(σ++σ−)/|μ+−μ−|] (Zhang, et al., 1999 J Biomol Screening 4(2) 67-73), where μ denotes the mean and σ the standard deviation. The subscript designates positive or negative controls. The Z′ score for a robust screening assay should be ≧0.50. The typical threshold=μ+−3*σ+−. Any value that falls below the threshold was designated a “hit”.
Dose response was analyzed using the equation: y=min+{(max−min)/(1+10^[compound]−logIC50)}, where y is the observed initial slope, max=the slope in the absence of inhibitor, min=the slope at infinite inhibitor, and the IC50 is the [compound] that corresponds to ½ the total observed amplitude (Amplitude=max−min).
To measure modulation, activation, or inhibition of Abl KD, a test compound was added to the assay at a range of concentrations. Inhibitors may inhibit Abl KD activity at an IC50 in the micromolar range, the nanomolar range, or, for example, in the subnanomolar range.
An open-reading frame for c-Abl was amplified from a Mus musculus (mouse) cDNA library prepared from freshly harvested mouse liver using a commercially available kit (Invitrogen) by PCR using the following primers: […]
The c-Abl T3151 KD (kinase domain) was purified as follows. […]

ABL P210WT BAF3 cells = biological target: T3, ABL P210WT BAF3 cells (Homo sapiens, UniProt P00519); experiment: 96-well XTT cell survival assay, BaF3 ABL P210WT; assay type: cell-based; conditions: ABL P210 WT, 72 hours, read-out: CELL BIO ABL P210WT BAF3 XTT (IC50)
T3 construct: ABL P210WT BAF3; fused on or other part: P11274 (Breakpoint cluster region protein)
Procedure: as §1, §2, §3

| ABL_T315I_0P (IC50) [1] | Compound | GI50 (ABL T315I BAF3 cells) [µM] | IC50 [1] [µM] | GI50 (ABL P210WT BAF3 cells) [µM] |
| --- | --- | --- | --- | --- |
| D (<0.01 μM) | COc1ccc(C(F)(F)F)cc1-c1c[nH]c2ncc(-c3cnc(N)c(C(=O)N(C)C)c3)c(Cl)c12 [2-Amino-5-[4-chloro-3-(2-methoxy-5-trifluoromethyl-phenyl)-1H-pyrrolo[2,3-b]pyridin-5-yl]-N,N-dimethyl-nicotinamide] | 0.1 to 1 | – | 0.1 to 1 |
| D (<0.01 μM) | COc1ccccc1-c1c[nH]c2ncc(-c3ccc(N)c(C(=O)N(C)C)c3)c(Cl)c12 [2-Amino-5-[4-chloro-3-(2-methoxy-phenyl)-1H-pyrrolo[2,3-b]pyridin-5-yl]-N,N-dimethyl-benzamide] | < 0.01 | – | < 0.01 |
| D (<0.01 μM) | COc1ccccc1-c1c[nH]c2ncc(-c3cnc(N)c(C(=O)N(C)C)c3)c(Cl)c12 [2-Amino-5-[4-chloro-3-(2-methoxy-phenyl)-1H-pyrrolo[2,3-b]pyridin-5-yl]-N,N-dimethyl-nicotinamide] | < 0.01 | – | < 0.01 |
| D (<0.01 μM) | COc1ncccc1-c1c[nH]c2ncc(-c3cnc(N)c(C(=O)N(C)C)c3)c(Cl)c12 [2-Amino-5-[4-chloro-3-(2-methoxy-pyridin-3-yl)-1H-pyrrolo[2,3-b]pyridin-5-yl]-N,N-dimethyl-nicotinamide] | 0.01 to 0.1 | – | 0.01 to 0.1 |
| D (<0.01 μM) | CN(C)C(=O)c1cc(-c2cnc3[nH]cc(-c4ccc5c(c4)CC(=O)N5)c3c2Cl)cnc1N [2-Amino-5-[4-chloro-3-(2-oxo-2,3-dihydro-1H-indol-5-yl)-1H-pyrrolo[2,3-b]pyridin-5-yl]-N,N-dimethyl-nicotinamide] | > 1 | – | 0.1 to 1 |
| D (<0.01 μM) | CN(C)C(=O)c1cc(-c2cnc3[nH]cc(-c4cccc(F)c4)c3c2Cl)cnc1N [2-Amino-5-[4-chloro-3-(3-fluoro-phenyl)-1H-pyrrolo[2,3-b]pyridin-5-yl]-N,N-dimethyl-nicotinamide] | 0.1 to 1 | – | 0.1 to 1 |
| D (<0.01 μM) | CCN(C)C(=O)c1cc(-c2cnc3[nH]cc(-c4cccc(F)c4)c3c2Cl)cnc1N [2-Amino-5-[4-chloro-3-(3-fluoro-phenyl)-1H-pyrrolo[2,3-b]pyridin-5-yl]-N-ethyl-N-methyl-nicotinamide] | 0.01 to 0.1 | – | 0.01 to 0.1 |
| D (<0.01 μM) | COc1cc(F)c(F)cc1-c1c[nH]c2ncc(-c3cnc(N)c(C(=O)N(C)C)c3)c(Cl)c12 [2-Amino-5-[4-chloro-3-(4,5-difluoro-2-methoxy-phenyl)-1H-pyrrolo[2,3-b]pyridin-5-yl]-N,N-dimethyl-nicotinamide] | 0.01 to 0.1 | – | 0.01 to 0.1 |
| D (<0.01 μM) | COc1cc(Cl)ccc1-c1c[nH]c2ncc(-c3cnc(N)c(C(=O)N(C)C)c3)c(Cl)c12 [2-Amino-5-[4-chloro-3-(4-chloro-2-methoxy-phenyl)-1H-pyrrolo[2,3-b]pyridin-5-yl]-N,N-dimethyl-nicotinamide] | 0.01 to 0.1 | – | 0.01 to 0.1 |

Continued, molecule first:

| Compound | ABL_T315I_0P (IC50) [1] | GI50 (ABL T315I BAF3 cells) [µM] | IC50 [1] [µM] | GI50 (ABL P210WT BAF3 cells) [µM] |
| --- | --- | --- | --- | --- |
| COc1cc(Cl)c(F)cc1-c1c[nH]c2ncc(-c3cnc(N)c(C(=O)N(C)C)c3)cc12 | – | 0.01 to 0.1 | < 0.01 | < 0.01 |
| CN(C)C(=O)c1cc(-c2cnc3[nH]cc(-c4cc[nH]n4)c3c2Cl)cnc1N [2-Amino-5-[4-chloro-3-(1H-pyrazol-3-yl)-1H-pyrrolo[2,3-b]pyridin-5-yl]-N,N-dimethyl-nicotinamide] | C (0.1-0.01 μM) | > 1 | – | > 1 |
| CN(C)C(=O)c1cc(-c2cnc3[nH]cc(-c4cccc(F)c4F)c3c2Cl)cnc1N [2-Amino-5-[4-chloro-3-(2,3-difluoro-phenyl)-1H-pyrrolo[2,3-b]pyridin-5-yl]-N,N-dimethyl-nicotinamide] | D (<0.01 μM) | 0.1 to 1 | – | 0.1 to 1 |
| CN(C)C(=O)c1cc(-c2cnc3[nH]cc(-c4cc(F)ccc4F)c3c2Cl)cnc1N [2-Amino-5-[4-chloro-3-(2,5-difluoro-phenyl)-1H-pyrrolo[2,3-b]pyridin-5-yl]-N,N-dimethyl-nicotinamide] | D (<0.01 μM) | 0.1 to 1 | – | 0.01 to 0.1 |
| CCN(C)C(=O)c1cc(-c2cnc3[nH]cc(-c4cc(F)ccc4F)c3c2Cl)cnc1N [2-Amino-5-[4-chloro-3-(2,5-difluoro-phenyl)-1H-pyrrolo[2,3-b]pyridin-5-yl]-N-ethyl-N-methyl-nicotinamide] | D (<0.01 μM) | 0.1 to 1 | – | 0.1 to 1 |
| CN(C)C(=O)c1cc(-c2cnc3[nH]cc(-c4cc(F)ccc4Cl)c3c2Cl)cnc1N [2-Amino-5-[4-chloro-3-(2-chloro-5-fluoro-phenyl)-1H-pyrrolo[2,3-b]pyridin-5-yl]-N,N-dimethyl-nicotinamide] | D (<0.01 μM) | 0.1 to 1 | – | 0.1 to 1 |
| CN(C)C(=O)c1cc(-c2cnc3[nH]cc(-c4ccccc4F)c3c2Cl)cnc1N [2-Amino-5-[4-chloro-3-(2-fluoro-phenyl)-1H-pyrrolo[2,3-b]pyridin-5-yl]-N,N-dimethyl-nicotinamide] | D (<0.01 μM) | 0.1 to 1 | – | 0.1 to 1 |

Source: patent US8158647B2, “Substituted pyrrolopyridines and pyrazolopyridines as kinase modulators” (SGX Pharmaceuticals, Inc., priority 2007, dated 2012)
